5 molecules from patent US4897392A, “4H-indolo(1,2-d)(1,2,4)triazolo(4,3-A)(1,4)benzodiazepines” (Hoechst-Roussel Pharmaceuticals, Inc., priority 1989, dated 1990) can be followed below.

The assay relates to mice. The experiment in a line: 2-phenyl-1,4-benzoquinone-induced writhing test in mice (Phenylquinone Writhing, PQW), analgesic activity. It is filed as in vivo. From the text:
The compounds of Formula I of the present invention are useful as analgesic agents due to their ability to alleviate pain in mammals. […] Exptl. Biol. Med., 95, 729 (1957)].
On the technique in general: An intraperitoneal irritant provokes the stretching counted in writhing tests.

For the molecule `Cc1nnc2n1-c1ccccc1-c1cc3ccccc3n1C2` [1-Methyl-4H-indolo[1,2-d][1,2,4]triazolo[4,3-a][1,4]benzodiazepine], the “Analgesic PQW, % Inhibition of Writhing at 20 mg/kg., s.c.” value amounted to 37%.
In the case of `Cc1nnc2n1-c1ccc(Cl)cc1-c1c(Cl)c3ccccc3n1C2` [10,12-Dichloro-1-methyl-4H-indolo[1,2-d][1,2,4]triazolo[4,3-a][1,4]benzodiazepine], the “Analgesic PQW, % Inhibition of Writhing at 20 mg/kg., s.c.” value was 32%.
Take `Cc1nnc2n1-c1ccccc1-c1c(Cl)c3ccccc3n1C2` [10-Chloro-1-methyl-4H-indolo[1,2-d][1,2,4]triazolo[4,3-a][1,4]benzodiazepin]: the “Analgesic PQW, % Inhibition of Writhing at 20 mg/kg., s.c.” value worked out at 51%.
Same read-out and setting: the figure for `Cc1nnc2n1-c1ccc(Cl)cc1-c1cc3ccccc3n1C2` [12-Chloro-1-methyl-4H-indolo[1,2-d][1,2,4]triazolo[4,3-a][1,4]benzodiazepin] is 46%.
For the molecule `CCC(=O)O[C@](Cc1ccccc1)(c1ccccc1)[C@H](C)CN(C)C` [Propoxyphene, reference compound], the “Analgesic PQW, % Inhibition of Writhing (reference compound, at 3.9 mg/kg, s.c.)” value (3.9 mg/kg) is recorded as 50%.
